This is an account of results in article PMC11618052, “Design, synthesis, and antiproliferative activity of new 1,2,3-triazole/quinazoline-4-one hybrids as dual EGFR/BRAF^V600E inhibitors” (RSC Advances, 2024).

The nature of data set [1]: Cell viability MTT assay on MCF-10A normal cells. Format: cell-based. The settings on record: human, MCF-10A normal mammary gland epithelial cells, MCF-10A cells, four days of incubation. The procedure: The viability of new compounds 8a–t was evaluated using the MCF-10A normal human mammary gland epithelial cell line. The cell viability of compounds 8a–t was examined using the MTT assay[36] after four days of incubation with MCF-10A cells. For more details, see Appendix A (ESI file). ^† […]
We evaluated the viability of new compounds 8a–t using the MCF-10A normal human mammary gland epithelial cell line. The cell viability of compounds 8a–t was examined using the MTT assay[36] after four days of incubation with MCF-10A cells.
4.2. Biological evaluation
4.2.1. Cytotoxic activity using MTT Assay and evaluation of IC 50
MTT assay was carried out to study the effect of compounds on mammary epithelial cells (MCF-10A). The medium in which cells were propagated contained Dulbecco's modified Eagle's medium (DMEM)/ Ham's F-12 medium (1:1) supplemented with epidermal growth factor (20 ng/mL), hydrocortisone (500 ng/mL), insulin (10 μg/mL), 2 mM glutamine and 10% foetal calf serum.
After every 2-3 days, the cells were passaged using trypsin ethylenediamine tetra acetic acid (EDTA). The cells were seeded at a density of 10^4 cells mL-1 in flat-bottomed culture plates containing 96 wells each. After 24 h, medium was removed from the plates and the compounds in (in 0.1% DMSO) were added (in 200 μL medium to yield a final concentration of 0.1% v/v) to the wells of plates. A single compound was designated with four wells followed by incubation of plates for 96h at 37°C. After incubation, medium was removed completely from the plates followed by addition of MTT (0.4 mg/mL in medium) to each well and subsequent incubation of plates for 3h. MTT (along with the medium) was removed and DMSO (150μL) was added to each well of the culture plates, followed by vortexing and subsequent measurement of absorbance (at 540 nm) using microplate reader. The data are shown as percentage inhibition of proliferation in comparison with controls containing 0.1% DMSO. […]

Another data set relates to lung cancer (A-549). Put plainly: Antiproliferative MTT assay, A-549. The conditions noted are these: Homo sapiens, A549, A-549 lung cancer cells, read-out: Antiproliferative activity IC50 ± SEM, A-549. Type of data set: cell-based. On the procedure:
(§1) The median inhibitory concentration (IC50) and GI50 (mean IC50) for the four cancer cell lines were calculated. Appendix A ^† contains more details. […]

The next data set concerns breast cancer (MCF-7). Put plainly: Antiproliferative MTT assay, MCF-7. Format: cell-based. The settings on record: Homo sapiens, MCF7, MCF-7 breast cancer cells, read-out: Antiproliferative activity IC50 ± SEM, MCF-7. On the procedure: as §1
The test system of data set [2] is pancreatic cancer (Panc-1). Put plainly: Antiproliferative MTT assay, Panc-1. Type of data set: cell-based. The settings on record: Homo sapiens, Panc-1 pancreatic cancer cells, read-out: Antiproliferative activity IC50 ± SEM, Panc-1. The procedure: as §1
In a further data set the test system is colon cancer (HT-29). Put plainly: Antiproliferative MTT assay, HT-29. Type of data set: cell-based. The conditions noted are these: Homo sapiens, HT-29 colon cancer cells, read-out: Antiproliferative activity IC50 ± SEM, HT-29. The procedure: as §1
Data set [3] deals with four human cancer cell lines (A-549, MCF-7, Panc-1, HT-29). Put plainly: Antiproliferative MTT assay, mean over the four cancer cell lines. The settings on record: mean IC50 over A-549, MCF-7, Panc-1, HT-29. Format: cell-based. The procedure:
as §1

The target in a further data set is T1, EGFR (Homo sapiens, UniProt P00533).
T1 construct: 645–1186; His6 (N); made in house; host or cells: Sf-9 insect cells (baculovirus; pBlueBacHis2B / pFASTBacHTc)
T1 sequence (P00533 669-1210): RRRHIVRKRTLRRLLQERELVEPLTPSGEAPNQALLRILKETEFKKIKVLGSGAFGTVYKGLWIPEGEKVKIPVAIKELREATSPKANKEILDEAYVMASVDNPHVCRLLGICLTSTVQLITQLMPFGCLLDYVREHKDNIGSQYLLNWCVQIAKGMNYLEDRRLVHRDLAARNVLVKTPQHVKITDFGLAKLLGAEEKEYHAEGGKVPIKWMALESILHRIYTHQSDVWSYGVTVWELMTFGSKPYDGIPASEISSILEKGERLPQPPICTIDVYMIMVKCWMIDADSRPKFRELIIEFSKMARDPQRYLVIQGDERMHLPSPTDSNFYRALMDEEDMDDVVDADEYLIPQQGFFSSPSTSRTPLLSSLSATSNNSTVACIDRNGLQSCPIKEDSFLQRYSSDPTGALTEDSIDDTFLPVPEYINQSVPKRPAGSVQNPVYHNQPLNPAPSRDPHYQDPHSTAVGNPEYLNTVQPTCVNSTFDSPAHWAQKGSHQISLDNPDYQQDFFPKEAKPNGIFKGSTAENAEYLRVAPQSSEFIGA
Put plainly: EGFR-TK inhibitory assay. Format: biochemical. The conditions noted are these: read-out: EGFR inhibition IC50 ± SEM. On the procedure: Sf-9 cells were infected for 72h for protein expression. […]
centrifugation for 20 min.
Histidine-linked proteins were first eluted with 250 and then […]
using wash buffer. Europium-tagged antiphosphotyrosine antibody (75 µL, 400 ng) was added to each well followed by incubation of 1h and then washing of the plates using buffer. The enhancement solution was added to each well and the signal was recorded at excitation and […]
The autophosphorylation percentage inhibition by compounds was calculated using the following equation: […]

For another data set, the target named is BRAF^V600E. Put plainly: BRAF^V600E kinase inhibitory assay.
BRAF^V600E, sequence (P28028 whole entry V585E): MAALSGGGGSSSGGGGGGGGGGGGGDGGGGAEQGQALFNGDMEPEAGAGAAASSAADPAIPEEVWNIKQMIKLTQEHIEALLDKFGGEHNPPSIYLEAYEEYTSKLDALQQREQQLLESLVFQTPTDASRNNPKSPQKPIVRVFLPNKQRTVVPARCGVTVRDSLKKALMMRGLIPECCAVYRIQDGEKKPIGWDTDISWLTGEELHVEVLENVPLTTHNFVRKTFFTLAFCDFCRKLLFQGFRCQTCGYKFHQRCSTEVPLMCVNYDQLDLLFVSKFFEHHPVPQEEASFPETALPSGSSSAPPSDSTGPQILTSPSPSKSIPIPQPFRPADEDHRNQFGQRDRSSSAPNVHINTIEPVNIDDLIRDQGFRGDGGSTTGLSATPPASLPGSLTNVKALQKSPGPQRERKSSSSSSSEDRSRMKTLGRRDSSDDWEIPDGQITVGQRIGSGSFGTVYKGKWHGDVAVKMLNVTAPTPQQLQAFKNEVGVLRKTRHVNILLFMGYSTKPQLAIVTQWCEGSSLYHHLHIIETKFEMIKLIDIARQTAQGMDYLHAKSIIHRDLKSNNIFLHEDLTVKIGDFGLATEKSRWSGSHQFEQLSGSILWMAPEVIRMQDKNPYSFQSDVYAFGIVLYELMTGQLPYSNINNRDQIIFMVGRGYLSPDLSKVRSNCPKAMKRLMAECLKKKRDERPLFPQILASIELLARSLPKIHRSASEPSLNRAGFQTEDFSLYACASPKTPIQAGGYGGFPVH

The structures appear in SMILES notation.

Procedure for BRAF^V600E: V600E mutant BRAF kinase assay was performed to investigate the activity of tested compounds against BRAF. Mouse full-length GST-tagged BRAFV600E (7.5 ng, Invitrogen, PV3849) was pre-incubated with drug (1 µL) and assay dilution buffer (4 µL) for 60 min at 25 °C. In assay dilution buffer, a solution (5 µL) containing MgCl2 (30 mM), ATP (200 µM), recombinant human full length (200 ng) and N-terminal His-tagged MEK1 (Invitrogen) was added to start the assay, subsequent to incubation for 25 min at 25 °C. The assay was stopped using 5X protein denaturing buffer (LDS) solution (5 µL). To further denature the protein, heat (70° C) was applied for 5 min.
10 µL of each reaction was loaded into the precast plates and electrophoresis was allowed to proceed. After completion of electrophoresis, the front part of the precast gel plate (holding hot ATP) was cut and afterwards cast-off. The dried gel was developed using a phosphor screen. A

Consider `Cc1ccc(-n2cc(CSc3nc4ccccc4c(=O)n3-c3cccc(C)c3)nn2)cc1` [Compound 8l, 2-(((1-(p-Tolyl)-1H-1,2,3-triazol-4-yl)methyl)thio)-3-(m-tolyl)quinazolin-4(3H)-one], for which the viability at 4 days, 50 µM in data set [1] amounted to 87%. The IC50 was found to be 33 ± 2 nM in the data set with lung cancer (A-549); 29 ± 2 nM with breast cancer (MCF-7); 36 ± 2 nM in data set [2]; 35 ± 2 nM in the data set on colon cancer (HT-29); 83 ± 5 nM on EGFR; 64 ± 5 nM against BRAF^V600E. Moreover, halving of growth in data set [3] (Homo sapiens) (GI50) required 33 nM.
Take `Cc1cccc(-n2c(SCc3cn(-c4ccc(Cl)cc4)nn3)nc3ccccc3c2=O)c1` [Compound 8j, 2-(((1-(4-Chlorophenyl)-1H-1,2,3-triazol-4-yl)methyl)thio)-3-(m-tolyl)quinazolin-4(3H)-one]: in data set [1], the viability at 4 days, 50 µM came to 87%. In addition, the IC50 was determined as 29 ± 2 nM with lung cancer (A-549); 26 ± 2 nM with breast cancer (MCF-7); 31 ± 2 nM in data set [2]; 30 ± 2 nM with colon cancer (HT-29); 78 ± 5 nM at EGFR; 61 ± 5 nM on BRAF^V600E. Besides, the GI50 amounted to 33 nM in data set [3] (Homo sapiens) and 29 nM in data set [3].
In data set [1], `Cc1ccc(-n2c(SCc3cn(-c4ccc(Cl)cc4)nn3)nc3ccccc3c2=O)cc1` [Compound 8f, 2-(((1-(4-Chlorophenyl)-1H-1,2,3-triazol-4-yl)methyl)thio)-3-(p-tolyl)quinazolin-4(3H)-one] returned a viability at 4 days, 50 µM of 87%. Besides, the IC50 in the data set with lung cancer (A-549) came out at 37 ± 3 nM; in the data set with breast cancer (MCF-7), 34 ± 3 nM; in data set [2] it was 38 ± 3 nM; in the data set with colon cancer (HT-29), 39 ± 3 nM; at EGFR, 89 ± 5 nM; at BRAF^V600E, 69 ± 5 nM. The molecule also yielded a GI50 in data set [3] (Homo sapiens) of 37 nM.
